As for `*/C(F)=C(\F)C(F)(C(*)(F)F)C(F)(F)F` (repeat unit), the glass transition temperature is -3.00 °C. With `*C(=O)N1C(=O)N(C(=O)c2ccc3c(c2)C(=O)N(c2ccc(Oc4ccc(N5C(=O)c6ccc(*)cc6C5=O)cc4)cc2)C3=O)C(C)(C)C1=O` (repeat unit), the glass transition temperature is 156.00 °C. Compound `*C(=O)N1C(=S)N(C(=O)c2ccc3c(c2)C(=O)N(c2ccc(Oc4ccc(N5C(=O)c6ccc(*)cc6C5=O)cc4)cc2)C3=O)C(C)=C(C(=O)OCC)C1c1ccc(OC)cc1OC` (repeat unit) came in with a glass transition temperature of 165.00 °C.

In the case of `*C(=O)Oc1ccc(C(C)(C)c2ccc(OC(=O)c3ccc4c(c3)C(=O)N(c3ccc(-c5ccc(N6C(=O)c7ccc(*)cc7C6=O)cc5C)c(C)c3)C4=O)cc2)cc1` (repeat unit), the glass transition temperature turned out to be 166.00 °C. The value for `*C(=O)Oc1ccc(C23CC4CC(CC(C4)C2)C3)c(OC(=O)c2ccc3c(c2)C(=O)N(c2ccc(-c4ccc(N5C(=O)c6ccc(*)cc6C5=O)cc4C)c(C)c2)C3=O)c1` (repeat unit) was 225.00 °C. Turning to `*C(=O)c1ccc2c(c1)C(=O)N(c1ccc(-c3ccc(N4C(=O)c5ccc(*)cc5C4=O)cc3C)c(C)c1)C2=O` (repeat unit), the glass transition temperature worked out at 385.00 °C. The value for `*C(=O)c1ccc2c(c1)C(=O)N(c1ccc(Oc3ccc(C(c4ccc(Oc5ccc(N6C(=O)c7ccc(*)cc7C6=O)cc5C(F)(F)F)cc4)(C(F)(F)F)C(F)(F)F)cc3)c(C(F)(F)F)c1)C2=O` (repeat unit) was 220.00 °C; that for `*C(=O)c1ccc2c(c1)C(=O)N(c1cccc(C(=O)c3ccc(Oc4ccc(N5C(=O)c6ccc(*)cc6C5=O)cc4C(F)(F)F)cc3)c1)C2=O` (repeat unit) was 242.00 °C; that for `*CCCCCCCCCCCCN1C(=O)c2ccc(-c3ccc(-c4ccc5c(c4)C(=O)N(*)C5=O)cc3)cc2C1=O` (repeat unit) was 86.00 °C. Then `*CCCCCCCCCCN1C(=O)c2ccc(-c3ccc(-c4ccc5c(c4)C(=O)N(*)C5=O)cc3)cc2C1=O` (repeat unit), with 103.00 °C. The value for `*Oc1ccc(-c2ccc(-c3ccc(Oc4ccc(C(c5ccc(*)cc5)(C(F)(F)F)C(F)(F)F)cc4)c(C(F)(F)F)c3)cc2)cc1C(F)(F)F` (repeat unit) was 207.50 °C. For the compound `*Oc1ccc(C2(c3ccc(Oc4ccc(-c5ccc(-c6ccc(*)c(C(F)(F)F)c6)cc5)cc4C(F)(F)F)cc3)c3ccccc3-c3ccccc32)cc1` (repeat unit), the glass transition temperature was determined as 237.00 °C. As to `*Oc1ccc(Sc2ccc(Oc3ccc(-c4ccc(-c5ccc(*)c(C(F)(F)F)c5)cc4)cc3C(F)(F)F)cc2)cc1` (repeat unit), the glass transition temperature came to 164.50 °C. For `*c1ccc(-c2ccc(-n3c(=O)c4cc5c(=O)n(*)c(=O)c5c(C(F)(F)F)c4c3=O)cc2C)c(C)c1` (repeat unit), the glass transition temperature turned out to be 373.00 °C.

Take `*c1ccc(-c2ccc(N(*)c3ccc(C(F)(F)F)cc3)cc2)cc1` (repeat unit): the glass transition temperature came to 225.00 °C. Then `*c1ccc(-c2ccc(N(*)c3ccc(CCCC)cc3)cc2)cc1` (repeat unit), with 180.00 °C. In the case of `*c1ccc(-c2ccc(N(c3ccc(OC)cc3)c3ccc4ccc(N(*)c5ccc(OC)cc5)cc4c3)cc2)cc1` (repeat unit), the glass transition temperature came to 232.00 °C. Then `*c1ccc(-c2ccc(N(c3ccccc3)c3ccc(-c4ccc(N(c5ccccc5)c5ccc(-c6ccc(-n7c(=O)c8cc9c(=O)n(*)c(=O)c9cc8c7=O)cc6)cc5)cc4)cc3)cc2)cc1` (repeat unit), with 220.00 °C; and `*c1ccc(-c2ccc([Si](*)(CCCC)CCCC)s2)s1` (repeat unit), with -10.00 °C. The value for `*c1ccc(C(c2ccccc2)c2ccc(N(c3ccc(C)cc3)c3ccc(-c4ccc(N(*)c5ccc(C)cc5)cc4)cc3)cc2)cc1` (repeat unit) was 239.00 °C.

(Values after the PolyMetriX glass transition set.)
